Reference: patent publication EP0726261A1, “Herbidical 1,2,4 thiadiazoles” (American Cyanamid Company, priority 1995, dated 1996)

Assays:
Assay type in all cases: in vivo
Triticum aestivum [1] = assay: Preemergence herbicidal activity (Example 67); set-up: herbicide rating, TRZAW: scale not given here; settings: pre, 800 g/ha; for herbicide rating, TRZAW: rated about 1-3 weeks after treatment
Method: (§1) Herbicidal evaluation of compounds of the invention is conducted on the following plant species:
(§2) The soil is a prepared horticultural substrate containing 30% peat, 20% volcanic clay, 30% bark residues and 20% polyamide/styromull in a 1:3 mixture with loamy sand. Test solutions are prepared by dissolving the test compound in acetone containing 0.5% of an alkylphenol/ethylene oxide condensate under the trademark, TRITON® X-155, and diluting with water as needed. The test solutions are applied as a spray to the 3-6 week old seedling plants at dose rates corresponding to 800g/ha in a volume equivalent to 400 L/ha. A pneumatic spraying device employing a Teejet nozzle SS 8002E operating at 3 bar is used for a predetermined time. After spraying, the treated plants are placed on greenhouse benches and cared for in a manner commensurate with conventional greenhouse practice. After 10-21 days, the treated plants are evaluated and rated according to the rating system provided below.
(§3) The soil surface is then sprayed with test solutions as described in the postemergence evaluation hereinabove. After spraying, the treated cups are placed on greenhouse benches and cared for in the manner commensurate with conventional greenhouse practice. About 1-3 weeks after treatment the cups are evaluated and rated according to the rating system provided hereinabove.

Hordeum vulgare [2] = assay: Preemergence herbicidal activity (Example 67); set-up: herbicide rating, HORVW: scale not given here; settings: pre, 800 g/ha; for herbicide rating, HORVW: rated about 1-3 weeks after treatment
Method: as §1, §2, §3

Alopecurus myosuroides [3] = assay: Preemergence herbicidal activity (Example 67); set-up: herbicide rating, ALOMY: scale not given here; settings: pre, 800 g/ha; for herbicide rating, ALOMY: rated about 1-3 weeks after treatment
Method: as §1, §2, §3

Setaria viridis [4] = assay: Preemergence herbicidal activity (Example 67); set-up: herbicide rating, SETVI: scale not given here; settings: pre, 800 g/ha; for herbicide rating, SETVI: rated about 1-3 weeks after treatment
Method: as §1, §2, §3

Abutilon theophrasti [5] = assay: Preemergence herbicidal activity (Example 67); settings: pre, 800 g/ha; for herbicide rating, ABUTH: rated about 1-3 weeks after treatment
Method: as §1, §2, §3

Amaranthus retroflexus [6] = assay: Preemergence herbicidal activity (Example 67); settings: pre, 800 g/ha; for herbicide rating, AMARE: rated about 1-3 weeks after treatment
Method: as §1, §2, §3

Chenopodium album [7] = assay: Preemergence herbicidal activity (Example 67); settings: pre, 800 g/ha; for herbicide rating, CHEAL: rated about 1-3 weeks after treatment
Method: as §1, §2, §3

Galium aparine [8] = assay: Preemergence herbicidal activity (Example 67); settings: pre, 800 g/ha; for herbicide rating, GALAP: rated about 1-3 weeks after treatment
Method: as §1, §2, §3

Helianthus annuus [9] = assay: Preemergence herbicidal activity (Example 67); settings: pre, 800 g/ha; for herbicide rating, HELAN: rated about 1-3 weeks after treatment
Method: as §1, §2, §3

Ipomoea hederacea [10] = assay: Preemergence herbicidal activity (Example 67); settings: pre, 800 g/ha; for herbicide rating, IPOHE: rated about 1-3 weeks after treatment
Method: as §1, §2, §3

Veronica persica [11] = assay: Preemergence herbicidal activity (Example 67); settings: pre, 800 g/ha; for herbicide rating, VERPE: rated about 1-3 weeks after treatment
Method: as §1, §2, §3

Zea mays [12] = assay: Preemergence herbicidal activity (Example 67); settings: pre, 800 g/ha; for herbicide rating, ZEAMX: rated about 1-3 weeks after treatment
Method: as §1, §2, §3

Abutilon theophrasti [13] = assay: Postemergence herbicidal activity (Example 67); settings: pos, 800 g/ha; for herbicide rating, ABUTH: rated after 10-21 days
Method: as §1, §2

Alopecurus myosuroides [14] = assay: Postemergence herbicidal activity (Example 67); settings: pos, 800 g/ha; for herbicide rating, ALOMY: rated after 10-21 days
Method: as §1, §2

Amaranthus retroflexus [15] = assay: Postemergence herbicidal activity (Example 67); settings: pos, 800 g/ha; for herbicide rating, AMARE: rated after 10-21 days
Method: as §1, §2

Chenopodium album [16] = assay: Postemergence herbicidal activity (Example 67); settings: pos, 800 g/ha; for herbicide rating, CHEAL: rated after 10-21 days
Method: as §1, §2

Galium aparine [17] = assay: Postemergence herbicidal activity (Example 67); settings: pos, 800 g/ha; for herbicide rating, GALAP: rated after 10-21 days
Method: as §1, §2

Helianthus annuus [18] = assay: Postemergence herbicidal activity (Example 67); settings: pos, 800 g/ha; for herbicide rating, HELAN: rated after 10-21 days
Method: as §1, §2

Hordeum vulgare [19] = assay: Postemergence herbicidal activity (Example 67); settings: pos, 800 g/ha; for herbicide rating, HORVW: rated after 10-21 days
Method: as §1, §2

Ipomoea hederacea [20] = assay: Postemergence herbicidal activity (Example 67); settings: pos, 800 g/ha; for herbicide rating, IPOHE: rated after 10-21 days
Method: as §1, §2

Setaria viridis [21] = assay: Postemergence herbicidal activity (Example 67); settings: pos, 800 g/ha; for herbicide rating, SETVI: rated after 10-21 days
Method: as §1, §2

Triticum aestivum [22] = assay: Postemergence herbicidal activity (Example 67); settings: pos, 800 g/ha; for herbicide rating, TRZAW: rated after 10-21 days
Method: as §1, §2

Veronica persica [23] = assay: Postemergence herbicidal activity (Example 67); settings: pos, 800 g/ha; for herbicide rating, VERPE: rated after 10-21 days
Method: as §1, §2

Zea mays [24] = assay: Postemergence herbicidal activity (Example 67); settings: pos, 800 g/ha; for herbicide rating, ZEAMX: rated after 10-21 days
Method: as §1, §2

## O=C(NCc1cccs1)c1nc(C=Cc2ccccc2)ns1 [Example 28]
Triticum aestivum [1]
  herbicide rating, TRZAW: 0
Hordeum vulgare [2]
  herbicide rating, HORVW: 0
Alopecurus myosuroides [3]
  herbicide rating, ALOMY: 0
Setaria viridis [4]
  herbicide rating, SETVI: 0
Abutilon theophrasti [5]
  herbicide rating, ABUTH: 0
Amaranthus retroflexus [6]
  herbicide rating, AMARE: 0
Chenopodium album [7]
  herbicide rating, CHEAL: 0
Galium aparine [8]
  herbicide rating, GALAP: 0
Helianthus annuus [9]
  herbicide rating, HELAN: 0
Ipomoea hederacea [10]
  herbicide rating, IPOHE: 0
Veronica persica [11]
  herbicide rating, VERPE: 0
Zea mays [12]
  herbicide rating, ZEAMX: 0
Abutilon theophrasti [13]
  herbicide rating, ABUTH: 1 (1-5%)
Alopecurus myosuroides [14]
  herbicide rating, ALOMY: 1 (1-5%)
Amaranthus retroflexus [15]
  herbicide rating, AMARE: 0
Chenopodium album [16]
  herbicide rating, CHEAL: 2 (6-15%)
Galium aparine [17]
  herbicide rating, GALAP: 0
Helianthus annuus [18]
  herbicide rating, HELAN: 0
Hordeum vulgare [19]
  herbicide rating, HORVW: 0
Ipomoea hederacea [20]
  herbicide rating, IPOHE: 0
Setaria viridis [21]
  herbicide rating, SETVI: 3 (16-29%)
Triticum aestivum [22]
  herbicide rating, TRZAW: 0
Veronica persica [23]
  herbicide rating, VERPE: 2 (6-15%)
Zea mays [24]
  herbicide rating, ZEAMX: 0

## CC(NC(=O)c1nc(-c2ccccc2F)ns1)c1cccs1 (racemic) [Example 38]
Triticum aestivum [1]
  herbicide rating, TRZAW: 0
Hordeum vulgare [2]
  herbicide rating, HORVW: 0
Alopecurus myosuroides [3]
  herbicide rating, ALOMY: 0
Setaria viridis [4]
  herbicide rating, SETVI: 0
Abutilon theophrasti [5]
  herbicide rating, ABUTH: 0
Amaranthus retroflexus [6]
  herbicide rating, AMARE: 4 (30-44%)
Chenopodium album [7]
  herbicide rating, CHEAL: 5 (45-64%)
Galium aparine [8]
  herbicide rating, GALAP: 0
Helianthus annuus [9]
  herbicide rating, HELAN: 0
Ipomoea hederacea [10]
  herbicide rating, IPOHE: 0
Veronica persica [11]
  herbicide rating, VERPE: 2 (6-15%)
Zea mays [12]
  herbicide rating, ZEAMX: 0
Abutilon theophrasti [13]
  herbicide rating, ABUTH: 8 (91-99%)
Alopecurus myosuroides [14]
  herbicide rating, ALOMY: 4 (30-44%)
Amaranthus retroflexus [15]
  herbicide rating, AMARE: 3 (16-29%)
Chenopodium album [16]
  herbicide rating, CHEAL: 6 (65-79%)
Galium aparine [17]
  herbicide rating, GALAP: 5 (45-64%)
Helianthus annuus [18]
  herbicide rating, HELAN: 7 (80-90%)
Hordeum vulgare [19]
  herbicide rating, HORVW: 3 (16-29%)
Ipomoea hederacea [20]
  herbicide rating, IPOHE: 5 (45-64%)
Setaria viridis [21]
  herbicide rating, SETVI: 8 (91-99%)
Triticum aestivum [22]
  herbicide rating, TRZAW: 3 (16-29%)
Veronica persica [23]
  herbicide rating, VERPE: 1 (1-5%)
Zea mays [24]
  herbicide rating, ZEAMX: 3 (16-29%)

## O=C(NCc1cccs1)c1nsc(-c2ccccc2)n1 [Example 49]
Triticum aestivum [1]
  TRZ AW rating: 0
Hordeum vulgare [2]
  HOR VW rating: 0
Alopecurus myosuroides [3]
  ALO MY rating: 0
Setaria viridis [4]
  SET VI rating: 0
Abutilon theophrasti [5]
  ABU TH rating: 0
Amaranthus retroflexus [6]
  AMA RE rating: 0
Chenopodium album [7]
  CHE AL rating: 0
Galium aparine [8]
  GAL AP rating: 0
Helianthus annuus [9]
  HEL AN rating: 1 (1-5%)
Ipomoea hederacea [10]
  IPO HE rating: 0
Veronica persica [11]
  VER PE rating: 0
Zea mays [12]
  ZEA MX rating: 0
Abutilon theophrasti [13]
  ABU TH rating: 4 (30-44%)
Alopecurus myosuroides [14]
  ALO MY rating: 5 (45-64%)
Amaranthus retroflexus [15]
  AMA RE rating: 3 (16-29%)
Chenopodium album [16]
  CHE AL rating: 4 (30-44%)
Galium aparine [17]
  GAL AP rating: 6 (65-79%)
Helianthus annuus [18]
  HEL AN rating: 8 (91-99%)
Hordeum vulgare [19]
  HOR VW rating: 4 (30-44%)
Ipomoea hederacea [20]
  IPO HE rating: 3 (16-29%)
Setaria viridis [21]
  SET VI rating: 8 (91-99%)
Triticum aestivum [22]
  TRZ AW rating: 3 (16-29%)
Veronica persica [23]
  VER PE rating: 3 (16-29%)
Zea mays [24]
  ZEA MX rating: 4 (30-44%)

## C[C@H](NC(=O)c1nc(-c2cccc(Cl)n2)ns1)c1ccccc1 [Example 46, (S)-3-(6-Chloro-2-pyridyl)-[1,2,4]thiadiazole-5-carboxylic acid, 1-(phenylethyl)amide]
Triticum aestivum [1]
  TRZ AW rating: 1 (1-5%)
Hordeum vulgare [2]
  HOR VW rating: 0
Alopecurus myosuroides [3]
  ALO MY rating: 0
Setaria viridis [4]
  SET VI rating: 0
Abutilon theophrasti [5]
  ABU TH rating: 0
Amaranthus retroflexus [6]
  AMA RE rating: 5 (45-64%)
Chenopodium album [7]
  CHE AL rating: 4 (30-44%)
Galium aparine [8]
  GAL AP rating: 0
Helianthus annuus [9]
  HEL AN rating: 0
Ipomoea hederacea [10]
  IPO HE rating: 0
Veronica persica [11]
  VER PE rating: 5 (45-64%)
Zea mays [12]
  ZEA MX rating: 0
Abutilon theophrasti [13]
  ABU TH rating: 8 (91-99%)
Alopecurus myosuroides [14]
  ALO MY rating: 6 (65-79%)
Amaranthus retroflexus [15]
  AMA RE rating: 3 (16-29%)
Chenopodium album [16]
  CHE AL rating: 6 (65-79%)
Galium aparine [17]
  GAL AP rating: 5 (45-64%)
Helianthus annuus [18]
  HEL AN rating: 8 (91-99%)
Hordeum vulgare [19]
  HOR VW rating: 6 (65-79%)
Ipomoea hederacea [20]
  IPO HE rating: 8 (91-99%)
Setaria viridis [21]
  SET VI rating: 8 (91-99%)
Triticum aestivum [22]
  TRZ AW rating: 5 (45-64%)
Veronica persica [23]
  VER PE rating: 8 (91-99%)
Zea mays [24]
  ZEA MX rating: 5 (45-64%)
